According to patent publication US9745320B2, “Five-and-six-membered heterocyclic compound, and preparation method, pharmaceutical composition and use thereof” (SHANGHAI CHEMEXPLORER CO., LTD., priority 2013, dated 2017):

What was measured:
Assay type in all cases: biochemical
JAK3 = target: T1, JAK3 (Homo sapiens, UniProt P52333); experiment: JAK 3 enzymatic inhibitory activity IC50 assay (Caliper conversion rate); settings: Km ATP, 28° C., 1 hour; read-out: JAK 3 enzymatic inhibitory activity IC50
T1 sequence (P52333 1-1124): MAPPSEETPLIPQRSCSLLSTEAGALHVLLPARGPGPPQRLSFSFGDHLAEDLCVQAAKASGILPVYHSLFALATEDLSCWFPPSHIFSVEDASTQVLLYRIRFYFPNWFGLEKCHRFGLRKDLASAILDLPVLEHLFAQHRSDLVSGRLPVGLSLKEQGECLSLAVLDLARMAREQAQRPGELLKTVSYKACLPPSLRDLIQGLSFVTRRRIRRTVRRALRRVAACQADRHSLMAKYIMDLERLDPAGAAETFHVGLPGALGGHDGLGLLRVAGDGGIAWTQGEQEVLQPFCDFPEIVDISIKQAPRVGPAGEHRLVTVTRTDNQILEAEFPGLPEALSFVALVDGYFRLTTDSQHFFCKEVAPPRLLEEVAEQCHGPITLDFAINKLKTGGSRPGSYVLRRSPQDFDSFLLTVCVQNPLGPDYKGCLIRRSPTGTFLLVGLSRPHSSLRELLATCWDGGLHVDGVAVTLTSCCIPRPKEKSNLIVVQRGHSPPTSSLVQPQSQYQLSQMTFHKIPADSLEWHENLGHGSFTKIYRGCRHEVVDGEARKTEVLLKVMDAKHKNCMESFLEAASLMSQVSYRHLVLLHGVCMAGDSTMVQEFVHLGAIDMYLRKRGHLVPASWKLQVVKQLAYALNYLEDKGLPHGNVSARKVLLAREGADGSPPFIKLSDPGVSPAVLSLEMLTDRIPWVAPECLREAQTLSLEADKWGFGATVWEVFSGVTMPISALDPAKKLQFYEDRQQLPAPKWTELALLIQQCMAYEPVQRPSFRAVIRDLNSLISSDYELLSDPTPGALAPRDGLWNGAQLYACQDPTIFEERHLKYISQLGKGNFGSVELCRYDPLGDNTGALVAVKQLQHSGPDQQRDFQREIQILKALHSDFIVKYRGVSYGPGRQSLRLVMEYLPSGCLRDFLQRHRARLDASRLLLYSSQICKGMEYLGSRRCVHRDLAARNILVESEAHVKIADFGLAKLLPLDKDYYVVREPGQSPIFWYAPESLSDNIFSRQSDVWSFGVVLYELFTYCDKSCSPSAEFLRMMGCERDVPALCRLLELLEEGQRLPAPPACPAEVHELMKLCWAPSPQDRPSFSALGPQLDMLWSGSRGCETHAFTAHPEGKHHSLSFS

JAK2 = JAK2 (Homo sapiens, UniProt O60674); experiment: JAK 2 enzymatic inhibitory activity IC50 assay (Caliper conversion rate); settings: Km ATP, 28° C., 1 hour
Method in brief: (§1)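 Human JAK1 or JAK2 enzyme was preincubated with graded compound (2% DMSO) in HEPES pH 7.5/Brij-35/DTT buffer (JAK1 also with Triton), then peptide substrate, 10 mM MgCl2 and ATP at Km were added. Reactions ran 1 hour at 28° C; Caliper conversion rate gave inhibition, averaged over two tests, for IC50.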

JAK1 = JAK1 (Homo sapiens, UniProt P23458); experiment: JAK 1 enzymatic inhibitory activity IC50 assay (Caliper conversion rate); settings: Km ATP, 28° C., 1 hour
Method in brief: as §1

Chain of JAK2 (O60674 whole entry, species assumed): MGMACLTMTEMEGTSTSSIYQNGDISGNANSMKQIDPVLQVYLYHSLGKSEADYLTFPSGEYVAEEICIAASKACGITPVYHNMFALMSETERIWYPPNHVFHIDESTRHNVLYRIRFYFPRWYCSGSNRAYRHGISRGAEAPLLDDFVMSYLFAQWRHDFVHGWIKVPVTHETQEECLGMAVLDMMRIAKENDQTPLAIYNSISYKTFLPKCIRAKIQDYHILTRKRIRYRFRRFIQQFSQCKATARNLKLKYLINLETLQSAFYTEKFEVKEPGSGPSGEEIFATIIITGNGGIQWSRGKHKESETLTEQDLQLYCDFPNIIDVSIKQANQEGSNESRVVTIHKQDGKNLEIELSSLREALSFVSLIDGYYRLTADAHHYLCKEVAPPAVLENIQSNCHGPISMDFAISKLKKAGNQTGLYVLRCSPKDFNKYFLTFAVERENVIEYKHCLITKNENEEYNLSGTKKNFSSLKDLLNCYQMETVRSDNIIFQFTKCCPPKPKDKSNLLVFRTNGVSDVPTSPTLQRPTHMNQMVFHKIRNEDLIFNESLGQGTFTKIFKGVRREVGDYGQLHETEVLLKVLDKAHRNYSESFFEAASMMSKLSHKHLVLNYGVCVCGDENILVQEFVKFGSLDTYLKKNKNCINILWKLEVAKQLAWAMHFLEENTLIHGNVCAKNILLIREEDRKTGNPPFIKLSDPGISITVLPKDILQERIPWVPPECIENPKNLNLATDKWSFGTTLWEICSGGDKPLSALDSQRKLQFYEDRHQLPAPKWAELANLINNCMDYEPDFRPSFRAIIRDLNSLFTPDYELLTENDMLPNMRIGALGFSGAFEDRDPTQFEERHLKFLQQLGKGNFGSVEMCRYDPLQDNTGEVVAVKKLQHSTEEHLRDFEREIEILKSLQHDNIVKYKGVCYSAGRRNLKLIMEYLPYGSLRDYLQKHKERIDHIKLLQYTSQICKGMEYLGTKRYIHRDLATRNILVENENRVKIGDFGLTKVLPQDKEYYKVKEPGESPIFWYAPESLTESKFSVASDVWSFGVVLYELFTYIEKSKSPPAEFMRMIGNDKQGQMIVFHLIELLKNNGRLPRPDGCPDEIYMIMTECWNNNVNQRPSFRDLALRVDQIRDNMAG
Chain of JAK1 (P23458 whole entry, species assumed): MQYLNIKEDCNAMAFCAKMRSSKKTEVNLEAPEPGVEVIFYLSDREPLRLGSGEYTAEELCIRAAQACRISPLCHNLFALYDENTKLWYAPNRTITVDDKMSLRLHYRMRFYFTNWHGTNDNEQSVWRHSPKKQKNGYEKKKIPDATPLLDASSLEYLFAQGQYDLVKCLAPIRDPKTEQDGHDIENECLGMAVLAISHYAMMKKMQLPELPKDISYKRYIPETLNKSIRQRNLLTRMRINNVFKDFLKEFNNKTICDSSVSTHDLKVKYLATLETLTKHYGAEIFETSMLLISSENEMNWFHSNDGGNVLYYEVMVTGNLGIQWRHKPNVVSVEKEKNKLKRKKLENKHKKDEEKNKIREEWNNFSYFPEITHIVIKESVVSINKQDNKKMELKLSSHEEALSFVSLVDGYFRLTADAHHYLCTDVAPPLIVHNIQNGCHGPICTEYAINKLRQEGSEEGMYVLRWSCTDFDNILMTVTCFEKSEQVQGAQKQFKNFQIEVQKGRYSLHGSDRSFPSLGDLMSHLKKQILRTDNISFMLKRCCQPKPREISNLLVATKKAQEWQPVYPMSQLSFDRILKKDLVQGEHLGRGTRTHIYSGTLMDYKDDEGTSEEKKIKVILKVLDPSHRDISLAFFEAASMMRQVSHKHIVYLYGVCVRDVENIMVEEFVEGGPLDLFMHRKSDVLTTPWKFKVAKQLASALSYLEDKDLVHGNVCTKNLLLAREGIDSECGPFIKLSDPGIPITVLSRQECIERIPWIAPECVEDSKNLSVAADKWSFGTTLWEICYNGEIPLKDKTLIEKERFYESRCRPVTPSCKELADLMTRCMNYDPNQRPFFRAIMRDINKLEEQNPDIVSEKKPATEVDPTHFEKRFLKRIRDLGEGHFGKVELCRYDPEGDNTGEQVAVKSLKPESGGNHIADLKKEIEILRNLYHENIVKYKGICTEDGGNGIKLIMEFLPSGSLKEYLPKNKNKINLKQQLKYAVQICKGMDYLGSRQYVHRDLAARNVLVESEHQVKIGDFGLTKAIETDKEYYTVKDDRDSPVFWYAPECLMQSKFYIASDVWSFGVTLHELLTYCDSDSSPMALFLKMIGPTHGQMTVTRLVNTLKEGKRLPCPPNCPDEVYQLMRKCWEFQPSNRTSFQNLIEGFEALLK

| IC50 (JAK3) | IC50 (JAK2) | IC50 (JAK1) | SMILES |
| --- | --- | --- | --- |
| 50 to 500 nM | < 50 nM | 50 to 500 nM | Cn1cc(Nc2nc(-c3cnn(C4(CC#N)CC(F)C4)c3)c3sccc3n2)cn1 (stereo not drawn) [Compound T-77, 2-(3-Fluoro-1-(4-(2-((1-methyl-1H-pyrazol-4-yl)amino)thieno[3,2-d]pyrimidin-4-yl)-1H-pyrazol-1-yl)cyclobutyl)acetonitrile] |
| 50 to 500 nM | < 50 nM | 50 to 500 nM | C[C@@H](O)Cn1cc(Nc2nc(-c3cnn(C4(CC#N)COC4)c3)c3sccc3n2)cn1 [Compound T-80, (R)-2-(3-(4-(2-((1-(2-Hydroxypropyl)-1H-pyrazol-4-yl)amino)thieno[3,2-d]pyrimidin-4-yl)-1H-pyrazol-1-yl)oxetan-3-yl)acetonitrile] |
| 50 to 500 nM | < 50 nM | < 50 nM | C[C@@H](CO)n1cc(Nc2nc(-c3cnn(C4(CC#N)COC4)c3)c3sccc3n2)cn1 [Compound T-83, (S)-2-(3-(4-(2-((1-(1-Hydroxypropan-2-yl)-1H-pyrazol-4-yl)amino)thieno[3,2-d]pyrimidin-4-yl)-1H-pyrazol-1-yl)oxetan-3-yl)acetonitrile] |
| < 50 nM | < 50 nM | < 50 nM | C[C@@H](CO)n1cc(Nc2nc(-c3cnn(C4(CC#N)CN(S(C)(=O)=O)C4)c3)c3sccc3n2)cn1 [Compound T-85, (S)-2-(3-(4-(2-((1-(1-Hydroxypropan-2-yl)-1H-pyrazol-4-yl)amino)thieno[3,2-d]pyrimidin-4-yl)-1H-pyrazol-1-yl)-1-(methylsulfonyl)azetidin-3-yl)acetonitrile] |
| < 50 nM | < 50 nM | < 50 nM | C[C@@H](O)Cn1cc(Nc2nc(-c3cnn(C4(CC#N)CN(S(C)(=O)=O)C4)c3)c3sccc3n2)cn1 [Compound T-86, (R)-2-(3-(4-(2-((1-(2-Hydroxypropyl)-1H-pyrazol-4-yl)amino)thieno[3,2-d]pyrimidin-4-yl)-1H-pyrazol-1-yl)-1-(methylsulfonyl)azetidin-3-yl)acetonitrile] |

Further lines, the compound ahead of its results:

| SMILES | IC50 (JAK3) | IC50 (JAK2) | IC50 (JAK1) |
| --- | --- | --- | --- |
| Cn1cc(Nc2nc(-c3cnn(C4(CC#N)CC4)c3)c3sccc3n2)cn1 [Compound T-75, 2-(1-(4-(2-((1-Methyl-1H-pyrazol-4-yl)amino)thieno[3,2-d]pyrimidin-4-yl)-1H-pyrazol-1-yl)cyclopropyl)acetonitrile] | 50 to 500 nM | < 50 nM | 50 to 500 nM |
| N#CCC1(n2cc(-c3nc(Nc4cnn(C5CC5)c4)nc4ccsc34)cn2)CC1 [Compound T-76, 2-(1-(4-(2-((1-Cyclopropyl-1H-pyrazol-4-yl)amino)thieno[3,2-d]pyrimidin-4-yl)-1H-pyrazol-1-yl)cyclopropyl)acetonitrile] | 50 to 500 nM | < 50 nM | 50 to 500 nM |
| CC(C)(O)Cn1cc(Nc2nc(-c3cnn(C4(CC#N)CN(S(C)(=O)=O)C4)c3)c3sccc3n2)cn1 [Compound T-78, 2-(3-(4-(2-((1-(2-Hydroxy-2-methylpropyl)-1H-pyrazol-4-yl)amino)thieno[3,2-d]pyrimidin-4-yl)-1H-pyrazol-1-yl)-1-(methylsulfonyl)azetidin-3-yl)acetonitrile] | < 50 nM | < 50 nM | < 50 nM |
| CC(C)(CO)n1cc(Nc2nc(-c3cnn(C4(CC#N)CN(S(C)(=O)=O)C4)c3)c3sccc3n2)cn1 [Compound T-79, 2-(3-(4-(2-((1-(1-Hydroxy-2-methylpropan-2-yl)-1H-pyrazol-4-yl)amino)thieno[3,2-d]pyrimidin-4-yl)-1H-pyrazol-1-yl)-1-(methylsulfonyl)azetidin-3-yl)acetonitrile] | < 50 nM | < 50 nM | < 50 nM |
| C[C@H](O)Cn1cc(Nc2nc(-c3cnn(C4(CC#N)COC4)c3)c3sccc3n2)cn1 [Compound T-81, (S)-2-(3-(4-(2-((1-(2-Hydroxypropyl)-1H-pyrazol-4-yl)amino)thieno[3,2-d]pyrimidin-4-yl)-1H-pyrazol-1-yl)oxetan-3-yl)acetonitrile] | 50 to 500 nM | < 50 nM | 50 to 500 nM |
| C[C@H](CO)n1cc(Nc2nc(-c3cnn(C4(CC#N)COC4)c3)c3sccc3n2)cn1 [Compound T-82, (R)-2-(3-(4-(2-((1-(1-Hydroxypropan-2-yl)-1H-pyrazol-4-yl)amino)thieno[3,2-d]pyrimidin-4-yl)-1H-pyrazol-1-yl)oxetan-3-yl)acetonitrile] | 50 to 500 nM | < 50 nM | 50 to 500 nM |
| C[C@H](CO)n1cc(Nc2nc(-c3cnn(C4(CC#N)CN(S(C)(=O)=O)C4)c3)c3sccc3n2)cn1 [Compound T-84, (R)-2-(3-(4-(2-((1-(1-Hydroxypropan-2-yl)-1H-pyrazol-4-yl)amino)thieno[3,2-d]pyrimidin-4-yl)-1H-pyrazol-1-yl)-1-(methylsulfonyl)azetidin-3-yl)acetonitrile] | < 50 nM | < 50 nM | < 50 nM |
| C[C@H](O)Cn1cc(Nc2nc(-c3cnn(C4(CC#N)CN(S(C)(=O)=O)C4)c3)c3sccc3n2)cn1 [Compound T-87, (S)-2-(3-(4-(2-((1-(2-Hydroxypropyl)-1H-pyrazol-4-yl)amino)thieno[3,2-d]pyrimidin-4-yl)-1H-pyrazol-1-yl)-1-(methylsulfonyl)azetidin-3-yl)acetonitrile] | < 50 nM | < 50 nM | < 50 nM |
